From ChEMBL document CHEMBL1124324, “Rational design of enzyme inhibitors: multisubstrate analogue inhibitors” (J Med Chem, 1989)

Biological target: Thymidylate synthase (Homo sapiens, UniProt P04818)
Assay: Inhibition of compound against thymidylate synthetase

Thymidylate synthase, sequence (P04818 whole entry): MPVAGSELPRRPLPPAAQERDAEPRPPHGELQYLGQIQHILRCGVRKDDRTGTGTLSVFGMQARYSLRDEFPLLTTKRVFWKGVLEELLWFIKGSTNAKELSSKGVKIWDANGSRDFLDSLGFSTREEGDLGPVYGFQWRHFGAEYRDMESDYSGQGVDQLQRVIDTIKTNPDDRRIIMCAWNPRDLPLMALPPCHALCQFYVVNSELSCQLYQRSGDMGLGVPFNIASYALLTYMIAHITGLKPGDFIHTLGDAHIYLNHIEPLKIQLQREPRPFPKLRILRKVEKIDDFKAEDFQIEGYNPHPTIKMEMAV

SMILES	Ki
CN(CC1CNc2nc(N)[nH]c(=O)c2N1Cc1c[nH]c(=O)[nH]c1=O)c1ccc(C(=O)NC(CCC(=O)O)C(=O)O)cc1 (stereo not drawn)	750 nM
NC1=NC(=O)C2C(=N1)CCC(CNc1ccc(C(=O)NC(CCC(=O)O)C(=O)O)cc1)N2Cc1cn([C@H]2C[C@H](O)[C@@H](COP(=O)(O)O)O2)c(=O)[nH]c1=O (stereo partly drawn)	30 nM
CN1CCN(Cc2cn([C@H]3C[C@H](O)[C@@H](COP(=O)(O)O)O3)c(=O)[nH]c2=O)c2ccccc21	60 nM
